The numbers were not newly measured in US20070264289A1, “COMPOSITIONS AND METHODS OF ADMINISTERING DOXEPIN TO MUCOSAL TISSUE” (EOT Research Inc., priority 2003, published 2007), which cites them from elsewhere.

SMILES strings stand for the structures. Structures can show the parent of a compound that is named as a salt.

The conditions of series [1]: metabolite formed in the liver after systemic absorption of doxepin.
The conditions of series [2]: systemic doxepin; drowsiness in a significant number of patients at this range.

With `CNCCC=C1c2ccccc2COc2ccccc21` [Desmethyldoxepin, desmethyldoxepin], the half-life (usually the time needed for the level to fall by half in the phase considered) in series [1] was 28 to 52 h.

`CN(C)CCC=C1c2ccccc2COc2ccccc21` [doxepin, N,N-dimethyldibenz(b,e)oxepin-propylamine hydrochloride]: the “target plasma therapeutic range for treatment of depression” value in series [2] was 30 to 150 ng/mL.
